Measurements from US20250353864A1, “INDAZOLE CONTAINING MACROCYCLES AND THEIR USE” (BLOSSOMHILL THERAPEUTICS, INC., priority 2022, published 2025).

Assays:
Assay type in all cases: biochemical
EGFR L858R mutant = EGFR L858R mutant (Homo sapiens (Human), UniProt P00533, L858R); experiment: HotSpot radiometric kinase assay, EGFR L858R mutant; details: 10 μM ATP
Method: (§1) Biochemical Assays for Inhibition of Wild-Type and Mutant EGFRs
(§2) Briefly, specific kinase/substrate pairs along with required cofactors were prepared in reaction buffer; 20 mM Hepes pH 7.5, 10 mM […], 1 mM EGTA, 0.02% Brij35, 0.02 mg/ml BSA, 0.1 mM Na3VO4, 2 mM DTT, 1% DMSO. Compounds were delivered into the reaction, followed […] later by addition of a mixture of ATP (Sigma, St. Louis MO) and ^33P ATP (Perkin Elmer, Waltham MA) to a final concentration of 10 μM. Reactions were carried out at room temperature for 120 min, followed by spotting of the reactions onto P81 ion exchange filter paper (Whatman Inc., Piscataway, NJ). Unbound phosphate was removed by extensive washing of filters in 0.75% phosphoric acid. […] IC50 values and curve fits were obtained using Prism (GraphPad Software).

[1] = molecular target: EGFR Δ746-750/C797S mutant (Homo sapiens (Human), UniProt P00533, C797S/DEL746-750); experiment: HotSpot radiometric kinase assay, EGFR Δ746-750/C797S mutant; details: 10 μM ATP
Method: as §1, §2

EGFR Δ746-750 mutant = EGFR Δ746-750 mutant (Homo sapiens (Human), UniProt P00533, DEL746-750); experiment: HotSpot radiometric kinase assay, EGFR Δ746-750 mutant; details: 10 μM ATP
Method: as §1, §2

[2] = molecular target: EGFR L858R/T790M/C797S mutant (Homo sapiens (Human), UniProt P00533, C797S/L858R/T790M); experiment: HotSpot radiometric kinase assay, EGFR L858R/T790M/C797S mutant; details: 10 μM ATP
Method: as §1, §2

EGFR L858R/T790M mutant = EGFR L858R/T790M mutant (Homo sapiens (Human), UniProt P00533, L858R/T790M); experiment: HotSpot radiometric kinase assay, EGFR L858R/T790M mutant; details: 10 μM ATP
Method: as §1, §2

EGFR (D770_N771insNPG) = EGFR (D770_N771insNPG) (Homo sapiens (Human), UniProt P00533, INS770NPG); experiment: HotSpot radiometric kinase assay, EGFR (D770_N771insNPG); details: 10 μM ATP, read-out: EGFR (Δ770_N771insNPG) IC50
Method: as §1, §2

EGFR WT = EGFR WT (Homo sapiens (Human), UniProt P00533); experiment: HotSpot radiometric kinase assay (Reaction Biology), EGFR WT; details: 10 μM ATP
Method: as §1, §2

EGFR L858R/T790M/C797S mutant, sequence (P00533 25-1210 T790M/C797S/L858R): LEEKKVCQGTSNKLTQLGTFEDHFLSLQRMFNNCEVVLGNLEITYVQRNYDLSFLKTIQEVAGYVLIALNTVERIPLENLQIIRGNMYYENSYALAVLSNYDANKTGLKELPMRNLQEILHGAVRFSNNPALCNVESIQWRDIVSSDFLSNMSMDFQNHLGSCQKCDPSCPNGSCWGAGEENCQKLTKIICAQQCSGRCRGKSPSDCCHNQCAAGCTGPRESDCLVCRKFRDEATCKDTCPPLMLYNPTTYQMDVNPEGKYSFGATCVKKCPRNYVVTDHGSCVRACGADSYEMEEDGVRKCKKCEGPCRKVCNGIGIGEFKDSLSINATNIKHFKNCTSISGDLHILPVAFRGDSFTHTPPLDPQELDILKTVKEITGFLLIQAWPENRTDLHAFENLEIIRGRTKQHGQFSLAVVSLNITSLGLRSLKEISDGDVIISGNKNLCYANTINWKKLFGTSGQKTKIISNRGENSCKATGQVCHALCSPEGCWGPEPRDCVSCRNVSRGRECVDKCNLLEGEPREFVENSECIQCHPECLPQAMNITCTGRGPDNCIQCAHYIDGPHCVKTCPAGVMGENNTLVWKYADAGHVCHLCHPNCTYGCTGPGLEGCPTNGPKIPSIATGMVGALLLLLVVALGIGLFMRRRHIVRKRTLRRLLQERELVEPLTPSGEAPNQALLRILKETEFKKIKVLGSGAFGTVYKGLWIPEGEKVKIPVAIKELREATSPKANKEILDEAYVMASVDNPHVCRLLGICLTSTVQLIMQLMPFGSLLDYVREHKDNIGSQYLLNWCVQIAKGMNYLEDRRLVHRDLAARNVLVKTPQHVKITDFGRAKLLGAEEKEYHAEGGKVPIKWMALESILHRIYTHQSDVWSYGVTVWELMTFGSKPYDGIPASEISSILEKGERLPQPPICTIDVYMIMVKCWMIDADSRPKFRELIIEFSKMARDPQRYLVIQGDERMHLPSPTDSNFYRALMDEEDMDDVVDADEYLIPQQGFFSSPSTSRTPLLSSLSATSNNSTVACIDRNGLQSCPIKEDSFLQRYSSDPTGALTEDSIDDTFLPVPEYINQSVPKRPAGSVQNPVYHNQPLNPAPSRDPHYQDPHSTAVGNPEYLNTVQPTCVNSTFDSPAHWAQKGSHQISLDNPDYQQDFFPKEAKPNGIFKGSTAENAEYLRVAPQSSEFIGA
EGFR Δ746-750 mutant, sequence (P00533 other isoform, or with tags, fused parts or gaps del 1-668/del 746-750 limits assumed): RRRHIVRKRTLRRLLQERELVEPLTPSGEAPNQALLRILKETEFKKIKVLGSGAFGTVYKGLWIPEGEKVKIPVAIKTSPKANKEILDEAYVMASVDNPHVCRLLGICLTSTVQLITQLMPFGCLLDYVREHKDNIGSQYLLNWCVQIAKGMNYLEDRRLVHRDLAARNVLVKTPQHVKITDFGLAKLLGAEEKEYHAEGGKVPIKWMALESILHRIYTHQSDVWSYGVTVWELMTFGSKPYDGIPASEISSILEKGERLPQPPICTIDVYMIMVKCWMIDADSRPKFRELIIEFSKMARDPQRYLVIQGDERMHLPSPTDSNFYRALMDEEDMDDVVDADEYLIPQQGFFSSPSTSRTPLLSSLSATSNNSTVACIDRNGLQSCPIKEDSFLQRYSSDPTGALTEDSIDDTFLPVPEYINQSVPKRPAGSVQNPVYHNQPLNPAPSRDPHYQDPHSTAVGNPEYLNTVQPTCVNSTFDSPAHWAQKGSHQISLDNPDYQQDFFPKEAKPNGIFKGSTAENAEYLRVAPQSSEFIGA
EGFR (D770_N771insNPG), sequence (P00533 other isoform, or with tags, fused parts or gaps del 1-668/ins NPG behind 770 limits assumed): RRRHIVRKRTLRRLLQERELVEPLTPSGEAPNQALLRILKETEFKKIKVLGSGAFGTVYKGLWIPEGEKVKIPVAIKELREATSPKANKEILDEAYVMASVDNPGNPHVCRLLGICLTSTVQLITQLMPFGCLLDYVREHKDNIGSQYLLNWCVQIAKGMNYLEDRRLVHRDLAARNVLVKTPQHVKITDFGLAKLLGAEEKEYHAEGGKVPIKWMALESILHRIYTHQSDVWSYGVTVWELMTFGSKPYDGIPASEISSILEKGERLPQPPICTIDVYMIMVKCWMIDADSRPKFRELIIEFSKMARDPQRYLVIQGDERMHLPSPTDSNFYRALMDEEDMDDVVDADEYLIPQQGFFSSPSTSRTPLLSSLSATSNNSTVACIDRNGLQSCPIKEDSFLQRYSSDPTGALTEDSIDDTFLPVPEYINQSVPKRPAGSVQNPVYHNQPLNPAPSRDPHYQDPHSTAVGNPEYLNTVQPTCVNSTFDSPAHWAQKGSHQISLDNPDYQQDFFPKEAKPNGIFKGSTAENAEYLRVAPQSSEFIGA
EGFR L858R mutant, sequence (P00533 25-1210 L858R): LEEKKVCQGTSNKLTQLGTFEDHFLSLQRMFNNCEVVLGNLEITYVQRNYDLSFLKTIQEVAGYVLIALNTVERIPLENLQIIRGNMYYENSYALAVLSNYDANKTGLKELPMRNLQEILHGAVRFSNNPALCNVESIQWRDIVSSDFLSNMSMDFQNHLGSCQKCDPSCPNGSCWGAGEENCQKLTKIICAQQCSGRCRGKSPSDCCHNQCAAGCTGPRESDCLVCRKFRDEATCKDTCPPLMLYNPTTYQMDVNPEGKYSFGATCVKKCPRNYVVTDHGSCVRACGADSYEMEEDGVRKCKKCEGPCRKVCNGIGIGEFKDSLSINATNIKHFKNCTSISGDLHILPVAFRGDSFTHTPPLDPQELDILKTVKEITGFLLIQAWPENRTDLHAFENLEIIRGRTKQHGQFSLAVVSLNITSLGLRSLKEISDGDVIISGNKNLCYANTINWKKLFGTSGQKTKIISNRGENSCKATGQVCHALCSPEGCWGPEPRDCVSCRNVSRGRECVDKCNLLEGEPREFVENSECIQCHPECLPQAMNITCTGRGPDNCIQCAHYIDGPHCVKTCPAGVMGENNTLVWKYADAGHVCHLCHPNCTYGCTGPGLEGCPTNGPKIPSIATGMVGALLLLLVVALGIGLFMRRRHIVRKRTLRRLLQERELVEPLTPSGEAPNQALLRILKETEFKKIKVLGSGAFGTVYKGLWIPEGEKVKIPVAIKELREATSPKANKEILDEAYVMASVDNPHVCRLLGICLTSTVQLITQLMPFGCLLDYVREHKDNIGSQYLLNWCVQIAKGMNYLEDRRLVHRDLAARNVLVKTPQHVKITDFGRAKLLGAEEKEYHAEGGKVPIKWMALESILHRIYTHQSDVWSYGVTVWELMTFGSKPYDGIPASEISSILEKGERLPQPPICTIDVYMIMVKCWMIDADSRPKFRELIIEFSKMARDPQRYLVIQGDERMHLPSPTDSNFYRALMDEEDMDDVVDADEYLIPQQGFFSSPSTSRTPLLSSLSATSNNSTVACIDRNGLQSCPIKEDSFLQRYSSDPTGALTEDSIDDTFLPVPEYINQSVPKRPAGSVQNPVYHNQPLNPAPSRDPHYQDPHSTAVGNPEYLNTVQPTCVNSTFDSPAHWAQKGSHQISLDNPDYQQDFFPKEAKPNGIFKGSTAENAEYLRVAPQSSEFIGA
EGFR Δ746-750/C797S mutant, sequence (P00533 other isoform, or with tags, fused parts or gaps C797S/del 1-668/del 746-750 limits assumed): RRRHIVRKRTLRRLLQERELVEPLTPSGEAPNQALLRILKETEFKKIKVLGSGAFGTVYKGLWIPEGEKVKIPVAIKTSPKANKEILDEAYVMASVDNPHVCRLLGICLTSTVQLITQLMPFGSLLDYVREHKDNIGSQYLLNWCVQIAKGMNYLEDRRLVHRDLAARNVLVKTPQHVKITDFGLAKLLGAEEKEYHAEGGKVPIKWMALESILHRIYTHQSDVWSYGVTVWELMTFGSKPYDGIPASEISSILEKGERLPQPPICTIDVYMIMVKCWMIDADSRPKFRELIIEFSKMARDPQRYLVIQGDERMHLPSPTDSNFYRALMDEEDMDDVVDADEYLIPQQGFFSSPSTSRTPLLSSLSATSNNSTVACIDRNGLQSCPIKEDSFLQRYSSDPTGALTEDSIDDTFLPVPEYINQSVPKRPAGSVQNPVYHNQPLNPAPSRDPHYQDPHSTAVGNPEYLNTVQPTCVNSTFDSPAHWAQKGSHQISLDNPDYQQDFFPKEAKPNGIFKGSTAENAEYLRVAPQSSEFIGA

Cc1nn([C@H]2COCC[C@@H]2O)c2c1/C=C/c1n[nH]c3ccc(cc13)-c1cnn(C)c1OCCCO2 (racemic) [Example 86, (rac)-1,5-anhydro-2,4-dideoxy-2-[(17E)-8,16-dimethyl-2,8,11,12-tetrahydro-10H,14H-3,5-etheno[1,5]dioxacyclopentadecino[10,11-c:15,14-c′:6,7-c″ ]tripyrazol-14-yl]-L-threo-pentitol] showed an IC50 (EGFR L858R mutant) of over 1000 nM, an IC50 [1] of over 1000 nM and an IC50 (EGFR Δ746-750 mutant) of over 1000 nM. For the same compound, the IC50 [2] was over 1000 nM, the IC50 (EGFR L858R/T790M mutant) was over 1000 nM and the IC50 (EGFR (D770_N771insNPG)) was over 1000 nM. For the same compound, the IC50 (EGFR WT) was over 1000 nM.
Cc1c2c(nn1[C@H]1C[C@@H](NCCN(C)C)C1)OCCCOc1c(cnn1C)-c1ccc3[nH]nc(c3c1)/C=C/2 [Example 107, N^2-{(1s,3s)-3-[(17E)-8,16-dimethyl-2,8,11,12-tetrahydro-10H,15H-3,5-etheno[1,5]dioxacyclopentadecino[10,11-c:15,14-c′:6,7-c″]tripyrazol-15-yl]cyclobutyl}-N^1,N^1-dimethylethane-1,2-diamine] showed an IC50 (EGFR L858R mutant) of 13.6 nM, an IC50 [1] of 42.2 nM and an IC50 (EGFR Δ746-750 mutant) of 34.1 nM. The IC50 [2] was 11.3 nM, the IC50 (EGFR L858R/T790M mutant) was 2.28 nM and the IC50 (EGFR (D770_N771insNPG)) was 66.5 nM. The IC50 (EGFR WT) was 41.9 nM.
Work on Cc1nn([C@H]2CCOC[C@@H]2O)c2c1/C=C/c1n[nH]c3ccc(cc13)-c1cnn(C)c1OCCCO2 (racemic) [Example 85, (rac)-1,5-anhydr-3o-2,3-dideoxy-3-[(17E)-8,16-dimethyl-2,8,11,12-tetrahydro-10H,14H-3,5-etheno[1,5]dioxacyclopentadecino[10,11-c:15,14-c′:6,7-c″ ]tripyrazol-14-yl]-L-threo-pentitol] yielded an IC50 (EGFR L858R mutant) of over 1000 nM, an IC50 [1] of over 1000 nM and an IC50 (EGFR Δ746-750 mutant) of over 1000 nM. It also gave an IC50 [2] of over 1000 nM, an IC50 (EGFR L858R/T790M mutant) of over 1000 nM and an IC50 (EGFR (D770_N771insNPG)) of over 1000 nM. The IC50 (EGFR WT) was over 1000 nM.
For Cc1nn(C)c2c1/C=C/c1n[nH]c3ccc(cc13)-c1cnn(C)c1CN(C)[C@@H](C)CO2 [Example 106, (11S,17E)-8,10,11,14,16-pentamethyl-2,9,10,11,12,14-hexahydro-8H-3,5-ethenotripyrazolo[3,4-f:4′,3′-j:4″,3″-n][1,4]oxazacyclopentadecine], the IC50 (EGFR L858R mutant) was 34.8 nM, the IC50 [1] was 68.5 nM and the IC50 (EGFR Δ746-750 mutant) was 57.6 nM. The IC50 [2] was 10.8 nM, the IC50 (EGFR L858R/T790M mutant) was 2.49 nM and the IC50 (EGFR (D770_N771insNPG)) was 111 nM. It also gave an IC50 (EGFR WT) of 107 nM.
CN1CCN(Cc2ccc3c(c2)O[C@@H]2CCN(CCOc4c(cnn4C)-c4ccc5[nH]nc(c5c4)/C=C/3)C2=O)CC1 [Example 92, (10R,16E)-3-methyl-13-[(4-methylpiperazin-1-yl)methyl]-3,5,6,9,10,19-hexahydro-8H-20,22-etheno-7,10-methanodipyrazolo[3,4-i:4′,3′-m][1,8,5]benzodioxazacyclooctadecin-25-one] was tested, and the IC50 (EGFR L858R mutant) was 4.1 nM, the IC50 [1] was 6.65 nM and the IC50 (EGFR Δ746-750 mutant) was 7.95 nM. The IC50 [2] was 3.26 nM, the IC50 (EGFR L858R/T790M mutant) was 0.41 nM and the IC50 (EGFR (D770_N771insNPG)) was 6.34 nM. It also gave an IC50 (EGFR WT) of 14.5 nM.
With Cc1nn([C@H]2C[C@@H](N(C)CCN(C)C)C2)c2c1/C=C/c1n[nH]c3ccc(cc13)-c1cnn(C)c1OCCCO2 [Example 103, N^1-{(1s,3s)-3-[(17E)-8,16-dimethyl-2,8,11,12-tetrahydro-10H,14H-3,5-etheno[1,5]dioxacyclopentadecino[10,11-c:15,14-c′:6,7-c″]tripyrazol-14-yl]cyclobutyl}-N^1,N^2,N^2-trimethylethane-1,2-diamine] the IC50 (EGFR L858R mutant) was 103 nM, the IC50 [1] was 171 nM and the IC50 (EGFR Δ746-750 mutant) was 105 nM. The IC50 [2] was 40.4 nM, the IC50 (EGFR L858R/T790M mutant) was 11.5 nM and the IC50 (EGFR (D770_N771insNPG)) was 344 nM. The IC50 (EGFR WT) was 358 nM.
C[C@H]1CN(C)Cc2cnn(C)c2/C=C/c2n[nH]c3ccc(cc23)-c2cnn(C)c2O1 [Example 113, (10S,17E)-8,10,12,16-tetramethyl-2,10,11,12,13,16-hexahydro-8H-3,5-ethenotripyrazolo[4,3-f:3′,4′-j:4″,3″-n][1,4]oxazacyclopentadecine] was tested, and the IC50 (EGFR L858R mutant) was 96.8 nM, the IC50 [1] was 67.4 nM and the IC50 (EGFR Δ746-750 mutant) was 69.9 nM. It also gave an IC50 [2] of 9.91 nM, an IC50 (EGFR L858R/T790M mutant) of 8.66 nM and an IC50 (EGFR (D770_N771insNPG)) of 727 nM. The IC50 (EGFR WT) was 488 nM.
With Cc1nn([C@H]2CCN(C)C[C@@H]2O)c2c1/C=C/c1n[nH]c3ccc(cc13)-c1cnn(C)c1OCCCO2 (racemic) [Example 82, (rac)-4-[(17E)-8,16-dimethyl-2,8,11,12-tetrahydro-10H,14H-3,5-etheno[1,5]dioxacyclopentadecino[10,11-c:15,14-c′:6,7-c′]tripyrazol-14-yl]-1-methylpiperidin-3-ol] the IC50 (EGFR L858R mutant) was 15.3 nM, the IC50 [1] was 29.8 nM and the IC50 (EGFR Δ746-750 mutant) was 27.9 nM. The IC50 [2] was 5.77 nM, the IC50 (EGFR L858R/T790M mutant) was 1.24 nM and the IC50 (EGFR (D770_N771insNPG)) was 56.7 nM. The IC50 (EGFR WT) was 67.8 nM.
Compound Cn1ncc2c1OCCCOc1nn3ccn(C)c(=O)c3c1/C=C/c1n[nH]c3ccc-2cc13 [Example 91, (20E)-8,18-dimethyl-2,8,11,12-tetrahydro-10H-3,5-ethenodipyrazolo[3″,4″:10′,11′;4′″,3′″:14′,15′][1,5]dioxacyclopentadecino[6′,7′:3,4]pyrazolo[1,5-a]pyrazin-19(18H)-one] has an IC50 (EGFR L858R mutant) of over 1000 nM, an IC50 [1] of over 1000 nM and an IC50 (EGFR Δ746-750 mutant) of over 1000 nM. The IC50 [2] was over 1000 nM, the IC50 (EGFR L858R/T790M mutant) was 400 nM and the IC50 (EGFR (D770_N771insNPG)) was over 1000 nM. The IC50 (EGFR WT) was over 1000 nM.
CCOc1nn(CCO)c2c1/C=C/c1n[nH]c3ccc(cc13)-c1c(C)nn(C)c1O[C@H](C)CN(C1CC1)C2 [Example 204] showed an IC50 (EGFR L858R mutant) of 5.5 nM, an IC50 [1] of 1.93 nM and an IC50 (EGFR Δ746-750 mutant) of 1.85 nM. For the same compound, the IC50 [2] was 2.53 nM, the IC50 (EGFR L858R/T790M mutant) was 1.77 nM and the IC50 (EGFR (D770_N771insNPG)) was 20.1 nM. The IC50 (EGFR WT) was 5.49 nM.
With CCOc1nn(CCO)c2c1/C=C/c1n[nH]c3ccc(cc13)-c1cnn(C)c1O[C@H](C)CN(C(C)=O)C2 [Example 217, 1-[(10R,17E)-16-ethoxy-14-(2-hydroxyethyl)-8,10-dimethyl-2,8,10,11,13,14-hexahydro-12H-3,5-ethenotripyrazolo[3,4-f:3′,4′-j:4″,3″-n][1,4]oxazacyclopentadecin-12-yl]ethan-1-one] the IC50 (EGFR L858R mutant) was 37.1 nM, the IC50 [1] was 1.94 nM and the IC50 (EGFR Δ746-750 mutant) was 3.61 nM. The IC50 [2] was 1.42 nM, the IC50 (EGFR L858R/T790M mutant) was 0.69 nM and the IC50 (EGFR (D770_N771insNPG)) was 107 nM. It also gave an IC50 (EGFR WT) of 71.7 nM.
Cc1c2c(nn1CCO)CNC[C@H](C)Oc1c(cnn1C)-c1ccc3[nH]nc(c3c1)/C=C/2 [Example 49, 2-[(10S,17E)-8,10,16-trimethyl-2,8,10,11,12,13-hexahydro-15H-3,5-ethenotripyrazolo[3,4-f:3′,4′-j:4″,3″- n][1,4]oxazacyclopentadecin-15-yl]ethan-1-ol] gave an IC50 (EGFR L858R mutant) of 862 nM, an IC50 [1] of 1040 nM and an IC50 (EGFR Δ746-750 mutant) of 617 nM. For the same compound, the IC50 [2] was 84.4 nM, the IC50 (EGFR L858R/T790M mutant) was 126 nM and the IC50 (EGFR (D770_N771insNPG)) was over 1000 nM. For the same compound, the IC50 (EGFR WT) was over 1000 nM.
Work on CC(C)Oc1nn([C@@H](C)CO)c2c1/C=C/c1n[nH]c3ccc(cc13)-c1cnn(C)c1O[C@H](C)CN(C(C)C)C2 [Example 207, (2S)-2-{(10R,17E)-8,10-dimethyl-12-(propan-2-yl)-16-[(propan-2-yl)oxy]-2,8,10,11,12,13-hexahydro-14H-3,5-ethenotripyrazolo[3,4-f:3′,4′-j:4″,3″- n][1,4]oxazacyclopentadecin-14-yl}propan-1-ol] yielded an IC50 (EGFR L858R mutant) of over 1000 nM, an IC50 [1] of over 1000 nM and an IC50 (EGFR Δ746-750 mutant) of over 1000 nM. For the same compound, the IC50 [2] was over 1000 nM, the IC50 (EGFR L858R/T790M mutant) was over 1000 nM and the IC50 (EGFR (D770_N771insNPG)) was over 1000 nM. The IC50 (EGFR WT) was over 1000 nM.
Cc1nn([C@@H]2COC[C@H]2O)c2c1/C=C/c1n[nH]c3ccc(cc13)-c1cnn(C)c1OCCCO2 (single isomer, unassigned) [Example 77] was tested, and the IC50 (EGFR L858R mutant) was 2080 nM, the IC50 [1] was 803 nM and the IC50 (EGFR Δ746-750 mutant) was 749 nM. For the same compound, the IC50 [2] was 453 nM, the IC50 (EGFR L858R/T790M mutant) was 427 nM and the IC50 (EGFR (D770_N771insNPG)) was 1880 nM. For the same compound, the IC50 (EGFR WT) was over 1000 nM.
